Measurements from doi:10.1101/2023.10.24.563163v2, “Targeting cancer with small molecule pan-KRAS degraders” (biorxiv, 2024).
Read-outs that look alike come from different tables or passages of the source.

Tests used:
KRAS^G12V = KRAS^G12V (Homo sapiens, UniProt P01116, G12V); parameters: endogenous; KRAS degradation by capillary electrophoresis immunodetection; settings: read-out: DC50 24 h SW620 (converted)
HiBiT-KRAS^G12D [1] = target: T1, HiBiT-KRAS^G12D (Homo sapiens, UniProt P01116, G12D); test: cell-based; parameters: HiBiT-KRAS degradation, split nanoluciferase lytic detection; settings: GP5d; read-out: Dmax 24 h GP5d HiBiT [%]
T1 construct: HiBiT-tagged
Protocol: (§1) This formula was derived from the Growth Inhibition (GI) calculation used in the National Cancer Institute’s NCI-60 high-throughput screen. KRAS Degradation Assays via Detection of Split Nanoluciferase (HiBiT) To assess PROTAC-mediated degradation of HiBiT-tagged KRAS constructs, cells were seeded at 25 000 cells per well in culture medium into white bottom opaque 96-well plates (Perkin Elmer cat no. 5680). Plates were incubated at 37 °C, 5% CO2 in a humidified incubator over night to allow the cells to adhere. Test compounds (10 mM stock in DMSO) were added at logarithmic dose series using the HP Digital Dispenser D300 (Tecan), normalizing for added DMSO. […] Following incubation, 100 µL per well Promega Nano-Glo HiBiT lytic detection reagent mix (Promega Nano-Glo HiBiT Lytic Detection System #N3050), prepared according to the manufacturer´s instructions in the kit, were added. To allow for adequate cell lysis, plates were incubated on an orbital shaker for 15 min. and further incubated 30 min. at room temperature. Upon completion of cell lysis, luminescence was measured using an Envision plate reader using the Ultrasensitive Luminescence Protocol for 96-well plates. Luminescence levels were normalized by the values obtained with DMSO-treated samples and plotted as percent of DMSO control. DC50 values were computed using a three parametric logistic model. Dmax values represent the maximal extent of degradation observed and are stated as percent of control treatments.

HiBiT-KRAS^G12D [2] = target: T1, HiBiT-KRAS^G12D; parameters: HiBiT-KRAS degradation, split nanoluciferase lytic detection; settings: degrader
Protocol: as §1

SW620 [3] = test: cells; parameters: DUSP6 modulation; settings: Homo sapiens, SW-620, 6 h; read-out: IC50 DUSP6
Text: (§2) Next, we set out to test the ability of a single pan-KRAS degrading molecule, compound 4, to selectively suppress oncogenic signaling and proliferation in cancer cell lines driven by diverse KRAS mutants. To this end, we first confirmed degradation of KRAS by compound 4 in KRAS-dependent (GP2d, SW620 and NCI-H358 expressing KRAS^G12D, - G12V or -G12C, respectively) as well as in KRAS independent (A-375, HEK293) cell lines (Fig. 3A, fig. S4A). […] Both inhibition and degradation repressed the established markers of MAPK signaling pERK (fig. S4B-D) and DUSP6 (Fig. 3B, fig. S4E) in KRAS dependent cell lines. […] Neither degradation nor inhibition had appreciable antiproliferative effects in the KRAS independent cell lines A-375 and HEK293 (Fig. 3C, fig. S4F).

SW620 [4] = test: cells; parameters: Inhibition of cell proliferation, 5 days; settings: Homo sapiens, SW-620, 120 h; read-out: IC50 Proliferation SW620
Text: as §2, with “S4F). […] Pan-KRAS degradation impacts MAPK signaling and cancer cell proliferation.” for “S4F).”

GP2d = test: cells; parameters: Inhibition of cell proliferation, 5 days; settings: 120 h, read-out: IC50 Proliferation GP2d
Text: as §2, with “S4F). […] Pan-KRAS degradation impacts MAPK signaling and cancer cell proliferation.” for “S4F).”

A375 = test: cells; parameters: pERK levels by capillary electrophoresis; settings: Homo sapiens, A-375, 6 h
Protocol: (§3) Protein Detection by Capillary Electrophoresis Cells (50 000) were seeded the day before treatment into 96-well clear-flat bottom plates and incubated overnight (37 °C, humidified tissue culture incubator, 5% CO2). Compounds were added from DMSO stock solution using a digital dispenser and cells are incubated at 37 °C as specified (24 hours for KRAS degradation, 6 hours for determination of pERK levels). At the end of the incubation, medium was removed, cells washed with ice cold PBS, PBS removed and 50 µL lysis buffer (Meso Scale Discovery #R60TX-2) supplemented with 1:100 protease inhibitor solution, 1:100 phosphatase inhibitor I, 1:100 phosphatase inhibitor II (Meso Scale Discovery #R70AA-1), 0.5 µL/mL Benzonase (Novagen #70664-3) and 10 mM dithiothreitol added to each well. Plates with lysis buffer were immediately transferred to -80 °C freezer for at least 2 hours and then thawed on ice. Lysates were transferred to a 96 well V-bottom plate and insoluble debris was pelleted by centrifugation for 20 min. at 4 000 rpm. 40 µL of the supernatant were transferred to a fresh Eppendorf PCR plate. Analysis of protein levels was conducted using the Wes System, ProteinSimple (https://www.bio-techne.com/) as specified by the manufacturer. Briefly, Wes Master Mix (12-230 kDa WES Separation Module, 8 × 25 capillary cartridges, ProteinSimple #SM-W004) and molecular weight markers were prepared as specified in the manufacturer’s recommendations. To detect primary antibodies, anti-rabbit (Protein Simple #DM-001) or anti-mouse (Protein Simple #DM-002) detection modules were used. 7.2 µL lysate + 1.8 µL master mix were combined and heated to 95 °C for 5 min. Th

NCI-H358 = test: cells; parameters: pERK levels by capillary electrophoresis; settings: Homo sapiens, NCI-H358, 6 h
Protocol: as §3

T1 sequence (P01116 whole entry G12D): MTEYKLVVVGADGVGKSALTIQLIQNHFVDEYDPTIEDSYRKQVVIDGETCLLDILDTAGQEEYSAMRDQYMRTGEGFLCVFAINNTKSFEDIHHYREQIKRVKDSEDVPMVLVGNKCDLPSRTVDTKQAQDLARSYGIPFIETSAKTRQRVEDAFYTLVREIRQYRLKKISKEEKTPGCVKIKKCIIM
KRAS^G12V, sequence (P01116 whole entry G12V): as the sequence (P01116 whole entry G12D) above, with D12V counted along it

| DC50 (KRAS^G12V) [nM] | Dmax (HiBiT-KRAS^G12D [1]) [%] | DC50 (HiBiT-KRAS^G12D [2]; read-out: DC50 24 h GP5d HiBiT) [nM] | IC50 (SW620 [3]) [nM] | IC50 (SW620 [4]) [nM] | IC50 (A375) [nM] | IC50 (NCI-H358) [nM] | DC50 (HiBiT-KRAS^G12D [2]; 10% human serum, read-out: DC50 24 h GP5d HiBiT 10% human serum) [nM] | DC50 (HiBiT-KRAS^G12D [2]; 10% mouse serum, read-out: DC50 24 h GP5d HiBiT 10% mouse serum) [nM] | Structure (SMILES) | IC50 (GP2d) [nM] |
| --- | --- | --- | --- | --- | --- | --- | --- | --- | --- | --- |
| 6.9 | 95 | 0.7 | – | – | – | – | – | – | Cc1ncsc1-c1ccc([C@H](CO)NC(=O)[C@@H]2C[C@@H](O)CN2C(=O)[C@H](C(C)C)n2cc(OCCCCN3CCCN(c4nccc(-c5noc([C@@]6(C)CCCc7sc(N)c(C#N)c76)n5)n4)[C@@H](C)C3)nn2)cc1 [compound 7, ACBI3] | – |
| 278 | 95 | 68.1 | 205 | 232 | > 1000 | > 1000 | – | – | Cc1ncsc1-c1ccc(CNC(=O)[C@@H]2C[C@@H](O)CN2C(=O)[C@@H](NC(=O)CCCCCN2CCCN(c3nccc(-c4noc([C@@]5(C)CCCc6sc(N)c(C#N)c65)n4)n3)[C@@H](C)C2)C(C)(C)C)cc1 [compound 3] | 374 |
| – | 94 | 1.4 | 6.2 | 11 | > 1000 | 8.2 | 1.9 | 33.1 | Cc1ncsc1-c1ccc(CNC(=O)[C@@H]2C[C@@H](O)CN2C(=O)[C@@H](c2cc(OCCCCN3CCCN(c4nccc(-c5noc([C@@]6(C)CCCc7sc(N)c(C#N)c76)n5)n4)[C@@H](C)C3)no2)C(C)C)cc1 [compound 4] | 8.3 |
| 1200 | 100 | 494 | – | – | – | – | – | – | Cc1ncsc1-c1ccc(CNC(=O)[C@@H]2C[C@@H](O)CN2C(=O)[C@@H](NC(=O)COCCCN2CCCN(c3nccc(-c4noc([C@@]5(C)CCCc6sc(N)c(C#N)c65)n4)n3)[C@@H](C)C2)C(C)(C)C)cc1 [compound 2] | – |
| – | – | – | 429 | 993 | > 1000 | > 1000 | – | – | Cc1ncsc1-c1ccc(CNC(=O)C2CC(O)CN2C(=O)C(c2cc(OCCCCN3CCCN(c4nccc(-c5noc(C6(C)CCCc7sc(N)c(C#N)c76)n5)n4)C(C)C3)no2)C(C)C)cc1 (stereo not shown) [compound 5] | 1740 |
